Laboratory results: US12102615B2 (THE TEXAS A&M UNIVERSITY SYSTEM, priority 2018, dated 2024)
In brackets after ≈: the same amount, converted by molar mass. Several values for one entry are separate records, joined by “and”; a condition that tells them apart may be missing. Identical values can stand only once. Like-named read-outs stand apart in the source and are kept apart here.

Tests used:
[1] = system: Fluconazole resistant C. albicans and C. glabrata; test: MIC against fluconazole resistant isolates; assay type: cell-based
Method: (§1) Minimum inhibitory concentration (MIC) susceptibility testing was performed according to the CLSI M27-A3 and M38-A2 standards for the susceptibility testing of yeasts and filamentous fungi, respectively. Incubation temperature was at 35° C. and the inoculum size was 0.5-2.5×10^3 colony-forming units (CFU)/mL and 0.4-5×10^4 conidia/mL for yeasts and filamentous fungi, respectively. Inoculum concentration for dermatophytes was 1-3×10^3 conidia/mL. RPMI was used throughout as the growth medium and Cryptococcus strains were tested in YNB. […] Voriconazole MICs were recorded at 80% inhibition after 96 hours of incubation for dermatophytes. S. cerevisiae deletion mutants were obtained from the commercially available BY4741 deletion library (Thermo Scientific). Susceptibility testing was carried out on inoculum size of 0.5-1×10^4 cells/ml in YPD media at 30° C. and MICs recorded after 48 and 60 hours.

[2] = system: Trichophyton mentagrophytes 10207; test: MIC susceptibility testing (CLSI M38-A2); assay type: cell-based
Method: as §1

[3] = system: Trichophyton mentagrophytes 28556; test: MIC susceptibility testing (CLSI M38-A2); assay type: cell-based
Method: as §1

[4] = system: Trichophyton mentagrophytes 28641; test: MIC susceptibility testing (CLSI M38-A2); assay type: cell-based
Method: as §1

[5] = system: Trichophyton rubrum 11199; test: MIC susceptibility testing (CLSI M38-A2); assay type: cell-based
Method: as §1

[6] = system: Trichophyton rubrum 28658; test: MIC susceptibility testing (CLSI M38-A2); assay type: cell-based
Method: as §1

[7] = system: Trichophyton rubrum 28659; test: MIC susceptibility testing (CLSI M38-A2); assay type: cell-based
Method: as §1

Candida albicans 23512 = test: MIC susceptibility testing (CLSI M27-A3); assay type: cell-based; settings: Candida albicans, 23512, 24 h, read-out: Fluconazole MIC
Method: as §1

Candida albicans 28102 = test: MIC susceptibility testing (CLSI M27-A3); assay type: cell-based; settings: Candida albicans, 28102, 24 h, read-out: Fluconazole MIC
Method: as §1

Candida albicans 28200 = test: MIC susceptibility testing (CLSI M27-A3); assay type: cell-based; settings: Candida albicans, 28200, 24 h, read-out: Fluconazole MIC
Method: as §1

Candida glabrata 25742 = test: MIC susceptibility testing (CLSI M27-A3); assay type: cell-based; settings: Nakaseomyces glabratus, 25742, 24 h, read-out: Fluconazole MIC
Method: as §1

Candida glabrata 27243 = test: MIC susceptibility testing (CLSI M27-A3); assay type: cell-based; settings: Nakaseomyces glabratus, 27243, 24 h, read-out: Fluconazole MIC
Method: as §1

Candida glabrata 28271 = test: MIC susceptibility testing (CLSI M27-A3); assay type: cell-based; settings: Nakaseomyces glabratus, 28271, 24 h, read-out: Fluconazole MIC
Method: as §1

Candida krusei 28415 = test: MIC susceptibility testing (CLSI M27-A3); assay type: cell-based; settings: Pichia kudriavzevii, 28415, 24 h, read-out: Fluconazole MIC
Method: as §1

Candida krusei 28570 = test: MIC susceptibility testing (CLSI M27-A3); assay type: cell-based; settings: Pichia kudriavzevii, 28570, 24 h, read-out: Fluconazole MIC
Method: as §1

Candida krusei 9541 = test: MIC susceptibility testing (CLSI M27-A3); assay type: cell-based; settings: Pichia kudriavzevii, 9541, 24 h, read-out: Fluconazole MIC
Method: as §1

[8] = system: Candida parapsilosis 2006; test: MIC susceptibility testing (CLSI M27-A3); assay type: cell-based; settings: Lodderomyces parapsilosis, 2006, 24 h, read-out: Fluconazole MIC
Method: as §1

[9] = system: Candida parapsilosis 28174; test: MIC susceptibility testing (CLSI M27-A3); assay type: cell-based; settings: Lodderomyces parapsilosis, 28174, 24 h, read-out: Fluconazole MIC
Method: as §1

[10] = system: Candida parapsilosis 28364; test: MIC susceptibility testing (CLSI M27-A3); assay type: cell-based; settings: Lodderomyces parapsilosis, 28364, 24 h, read-out: Fluconazole MIC
Method: as §1

Candida tropicalis 28272 = test: MIC susceptibility testing (CLSI M27-A3); assay type: cell-based; settings: Candida tropicalis, 28272, 24 h, read-out: Fluconazole MIC
Method: as §1

Candida tropicalis 28478 = test: MIC susceptibility testing (CLSI M27-A3); assay type: cell-based; settings: Candida tropicalis, 28478, 24 h, read-out: Fluconazole MIC
Method: as §1

Candida tropicalis 9624 = test: MIC susceptibility testing (CLSI M27-A3); assay type: cell-based; settings: Candida tropicalis, 9624, 24 h, read-out: Fluconazole MIC
Method: as §1

[11] = system: Cryptococcus neoformans 19526; test: MIC susceptibility testing (CLSI M27-A3); assay type: cell-based; settings: Cryptococcus neoformans, 19526, 72 h, read-out: Fluconazole MIC
Method: as §1

[12] = system: Cryptococcus neoformans 27708; test: MIC susceptibility testing (CLSI M27-A3); assay type: cell-based; settings: Cryptococcus neoformans, 27708, 72 h, read-out: Fluconazole MIC
Method: as §1

[13] = system: Cryptococcus neoformans 28446; test: MIC susceptibility testing (CLSI M27-A3); assay type: cell-based; settings: Cryptococcus neoformans, 28446, 72 h, read-out: Fluconazole MIC
Method: as §1

Aspergillus flavus 28445 = test: MIC susceptibility testing (CLSI M38-A2); assay type: cell-based; settings: Aspergillus flavus, 28445, 48 h, read-out: Voriconazole MIC
Method: as §1

Aspergillus flavus 28455 = test: MIC susceptibility testing (CLSI M38-A2); assay type: cell-based; settings: Aspergillus flavus, 28455, 48 h, read-out: Voriconazole MIC
Method: as §1

Aspergillus flavus 28517 = test: MIC susceptibility testing (CLSI M38-A2); assay type: cell-based; settings: Aspergillus flavus, 28517, 48 h, read-out: Voriconazole MIC
Method: as §1

[14] = system: Aspergillus fumigatus 28434; test: MIC susceptibility testing (CLSI M38-A2); assay type: cell-based; settings: Aspergillus fumigatus, 28434, 48 h, read-out: Voriconazole MIC
Method: as §1

[15] = system: Aspergillus fumigatus 28435; test: MIC susceptibility testing (CLSI M38-A2); assay type: cell-based; settings: Aspergillus fumigatus, 28435, 48 h, read-out: Voriconazole MIC
Method: as §1

[16] = system: Aspergillus fumigatus 28436; test: MIC susceptibility testing (CLSI M38-A2); assay type: cell-based; settings: Aspergillus fumigatus, 28436, 48 h, read-out: Voriconazole MIC
Method: as §1

Fusarium oxysporum 27718 = test: MIC susceptibility testing (CLSI M38-A2); assay type: cell-based; settings: Fusarium oxysporum, 27718, 48 h, read-out: Voriconazole MIC
Method: as §1

Fusarium solani 18749 = test: MIC susceptibility testing (CLSI M38-A2); assay type: cell-based; settings: Fusarium solani, 18749, 48 h, read-out: Voriconazole MIC
Method: as §1

Fusarium solani 28386 = test: MIC susceptibility testing (CLSI M38-A2); assay type: cell-based; settings: Fusarium solani, 28386, 48 h, read-out: Voriconazole MIC
Method: as §1

[17] = system: Mucor circinelloides 19445; test: MIC susceptibility testing (CLSI M38-A2); assay type: cell-based; settings: Mucor circinelloides, 19445, 24 h, read-out: Voriconazole MIC
Method: as §1

Mucor fragdis 27782 = test: MIC susceptibility testing (CLSI M38-A2); assay type: cell-based; settings: Mucor, 27782, 24 h, read-out: Voriconazole MIC
Method: as §1

Mucor racemosus 27784 = test: MIC susceptibility testing (CLSI M38-A2); assay type: cell-based; settings: Mucor racemosus, 27784, 24 h, read-out: Voriconazole MIC
Method: as §1

[18] = system: Rhizopus microsporus 27785; test: MIC susceptibility testing (CLSI M38-A2); assay type: cell-based; settings: Rhizopus microsporus, 27785, 24 h, read-out: Voriconazole MIC
Method: as §1

[19] = system: Rhizopus microsporus 28506; test: MIC susceptibility testing (CLSI M38-A2); assay type: cell-based; settings: Rhizopus microsporus, 28506, 24 h, read-out: Voriconazole MIC
Method: as §1

Rhizopus oryzae 28403 = test: MIC susceptibility testing (CLSI M38-A2); assay type: cell-based; settings: Rhizopus arrhizus, 28403, 24 h, read-out: Voriconazole MIC
Method: as §1

actin = molecular target: T1, actin (Oryctolagus cuniculus, UniProt P68135); test: Pyrene labeled actin polymerization assay; assay type: biochemical; settings: 5 μM; approximately one hour after incubation in the polymerization buffer
T1 construct: purchased Cytoskeleton, Inc. (Denver, CO) BK003
Method: (§2) Actin polymerization and depolymerization assays were performed using the Actin polymerization biochem kit (#BK003; Cytoskeleton, Inc. Denver, CO) following the manufacturer's instructions with some modifications. Briefly, for the polymerization assay, G-actin stock solution was made at 0.2 mg/mL instead of 0.4 mg/mL. For the depolymerization assay, F-actin stock solution was diluted 9-fold instead of 5-fold. […] The experiments were done in duplicate.

F-actin [20] = molecular target: T2, F-actin (Oryctolagus cuniculus, UniProt P68135); test: Pyrene labeled actin depolymerization assay; assay type: biochemical; set-up: purchased Cytoskeleton, Inc. (Denver, CO) BK003; settings: 5 μM
Method: as §2

F-actin [21] = molecular target: T2, F-actin; set-up: Purified rabbit skeletal muscle filamentous actin (AKF99); purchased Cytoskeleton Inc. (Denver, CO) AKF99; host or cells: rabbit skeletal muscle; settings: co-sedimentation assay, published previously (Ravichandran et al.), read-out: Kd, binding to actin; cited from earlier work

OC(Cn1cncn1)(Cn1cncn1)c1ccc(F)cc1F [Fluconazole]
MIC / inhibitory concentrations [1]: ≥ 32 µg/mL
MIC ([2]; Trichophyton mentagrophytes, 10207, read-out: Fluconazole MIC): > 16 µg/mL
MIC ([3]; Trichophyton mentagrophytes, 28556, read-out: Fluconazole MIC): > 16 µg/mL
MIC ([4]; Trichophyton mentagrophytes, 28641, read-out: Fluconazole MIC): 16 µg/mL (≈ 52.2 µM)
MIC ([5]; Trichophyton rubrum, 11199, read-out: Fluconazole MIC): 0.25 µg/mL (≈ 0.816 µM)
MIC ([6]; Trichophyton rubrum, 28658, read-out: Fluconazole MIC): 2 µg/mL (≈ 6.53 µM)
MIC ([7]; Trichophyton rubrum, 28659, read-out: Fluconazole MIC): 2 µg/mL (≈ 6.53 µM)
MIC (Candida albicans 23512): 32 µg/mL (≈ 104 µM)
MIC (Candida albicans 28102): 0.125 µg/mL (≈ 0.408 µM)
MIC (Candida albicans 28200): 8 µg/mL (≈ 26.1 µM)
MIC (Candida glabrata 25742): 4 µg/mL (≈ 13.1 µM)
MIC (Candida glabrata 27243): 64 µg/mL (≈ 209 µM)
MIC (Candida glabrata 28271): > 64 µg/mL
MIC (Candida krusei 28415): 64 µg/mL (≈ 209 µM)
MIC (Candida krusei 28570): 16 µg/mL (≈ 52.2 µM)
MIC (Candida krusei 9541): 16 µg/mL (≈ 52.2 µM)
MIC [8]: 0.125 µg/mL (≈ 0.408 µM)
MIC [9]: 0.25 µg/mL (≈ 0.816 µM)
MIC [10]: 0.25 µg/mL (≈ 0.816 µM)
MIC (Candida tropicalis 28272): 0.125 µg/mL (≈ 0.408 µM)
MIC (Candida tropicalis 28478): 0.125 µg/mL (≈ 0.408 µM)
MIC (Candida tropicalis 9624): 0.25 µg/mL (≈ 0.816 µM)
MIC [11]: 4 µg/mL (≈ 13.1 µM)
MIC [12]: 2 µg/mL (≈ 6.53 µM)
MIC [13]: 4 µg/mL (≈ 13.1 µM)

C[C@@H](c1ncncc1F)[C@](O)(Cn1cncn1)c1ccc(F)cc1F [Voriconazole]
MIC (Aspergillus flavus 28445): 2 µg/mL (≈ 5.73 µM)
MIC (Aspergillus flavus 28455): 2 µg/mL (≈ 5.73 µM)
MIC (Aspergillus flavus 28517): 1 µg/mL (≈ 2.86 µM)
MIC [14]: 1 µg/mL (≈ 2.86 µM)
MIC [15]: 1 µg/mL (≈ 2.86 µM)
MIC [16]: 1 µg/mL (≈ 2.86 µM)
MIC (Fusarium oxysporum 27718): > 16 µg/mL
MIC (Fusarium solani 18749): > 16 µg/mL
MIC (Fusarium solani 28386): > 16 µg/mL
MIC [17]: > 16 µg/mL
MIC (Mucor fragdis 27782): > 16 µg/mL
MIC (Mucor racemosus 27784): > 16 µg/mL
MIC [18]: > 16 µg/mL
MIC [19]: 16 µg/mL (≈ 45.8 µM)
MIC (Rhizopus oryzae 28403): > 16 µg/mL
MIC ([2]; Trichophyton mentagrophytes, 10207, 96 h, read-out: Voriconazole MIC): 0.25 µg/mL (≈ 0.716 µM)
MIC ([3]; Trichophyton mentagrophytes, 28556, 96 h, read-out: Voriconazole MIC): 0.06 µg/mL (≈ 0.172 µM)
MIC ([4]; Trichophyton mentagrophytes, 28641, 96 h, read-out: Voriconazole MIC): 0.06 µg/mL (≈ 0.172 µM)
MIC ([5]; Trichophyton rubrum, 11199, 96 h, read-out: Voriconazole MIC): 0.008 µg/mL (≈ 0.0229 µM)
MIC ([6]; Trichophyton rubrum, 28658, 96 h, read-out: Voriconazole MIC): 0.03 µg/mL (≈ 0.0859 µM)
MIC ([7]; Trichophyton rubrum, 28659, 96 h, read-out: Voriconazole MIC): 0.03 µg/mL (≈ 0.0859 µM)

phalloidin
pyrene fluorescence reading, plateau in polymerization buffer (actin): around 19,000 AU
effect on polymerization or depolymerization of actin (F-actin [20]): completely blocked the depolymerization of F-actin
pyrene fluorescent reading following incubation in depolymerization buffer (F-actin [20]; no drug control at 2,500 AU): above 5,000 AU
Kd (F-actin [21]): ~8 nM and 8 nM
